Data from US12708632B2 (Jazz Pharmaceuticals Research UK Limited, priority 2020, dated 2026).
“Also recorded” adds a separate entry of the source.

Test system: seizures associated with Cortical Dysplasia and Cortical Brain Malformation
Assay: Open label, expanded-access program of botanically derived purified CBD: caregiver-diary seizure frequency
Type: in vivo, human patients
Set-up: reduction in atonic seizures over the treatment period / reduction in tonic seizures over the treatment period / reduction in focal seizures without impairment over the treatment period: concentration or dose not given beside the values
Conditions: for Seizure frequency: Focal with impairment: baseline 49.0; for Seizure frequency: Atonic: baseline 80.0
Experimental: Subjects were required to be on one or more AEDs at stable doses for a minimum of two weeks prior to baseline and to have stable vagus nerve stimulation (VNS) settings and ketogenic diet ratios for a minimum of four weeks prior to baseline.
Dose was then increased weekly by 5 mg/kg/day to a goal of 20 to 25 mg/kg/day.
A maximum dose of 50 mg/kg/day could be utilised for patients who were tolerating the medication but had not achieved seizure control; these patients had further weekly titration by 5 mg/kg/day.
Modifications were made to concomitant AEDs as per clinical indication.
Seizure frequency, intensity, and duration were recorded by caregivers in a diary during a baseline period of at least 28 days. Changes in seizure frequency relative to baseline were calculated after at least 2 weeks and at defined timepoints of treatment.
Patients may be defined as responders if they had more than 50% reduction in seizure frequency compared to baseline. the percent change in seizure frequency was calculated as follows: […]
The percent change of seizure frequency may be calculated for any time interval where seizure number has been recorded. For the purpose of this example the percent change of seizure frequency for the end of the treatment period was calculated as follows: […]

With `C=C(C)[C@@H]1CCC(C)=C[C@H]1c1c(O)cc(CCCCC)cc1O` [CBD, cannabidiol] the “Seizure frequency: Tonic” value (Patient 4, 96 weeks, CBD 50.0 mg/kg/day, baseline 196.0) was 22.0 seizures per week, the “Seizure frequency: Tonic” value (Patient 4, 120 weeks, CBD 42.6 mg/kg/day, baseline 196.0) was 16.0 seizures per week and the “Seizure frequency: Tonic” value (Patient 4, 132 weeks, CBD 49.8 mg/kg/day, baseline 196.0) was 36.0 seizures per week. For the same compound, the “reduction in tonic seizures over the treatment period” value (Patient 4, treated for 132 weeks, vs baseline) was 81.6%, the “Seizure frequency: Tonic” value (Patient 5, 4 weeks, CBD 20.0 mg/kg/day, baseline 4.0) was 3.2 seizures per week and the “Seizure frequency: Tonic” value (Patient 5, 8 weeks, CBD 35.0 mg/kg/day, baseline 4.0) was 11.0 seizures per week. For the same compound, the “Seizure frequency: Tonic” value (Patient 5, 12 weeks, CBD 50.0 mg/kg/day, baseline 4.0) was 1.0 seizures per week, the “Seizure frequency: Tonic” value (Patient 5, 24 weeks, CBD 50.0 mg/kg/day, baseline 4.0) was 0.0 seizures per week and the “Seizure frequency: Tonic” value (Patient 5, 36 weeks, CBD 47.0 mg/kg/day, baseline 4.0) was 0.0 seizures per week. For the same compound, the “Seizure frequency: Tonic” value (Patient 5, 48 weeks, CBD 46.0 mg/kg/day, baseline 4.0) was 1.0 seizures per week, the “Seizure frequency: Tonic” value (Patient 5, 60 weeks, CBD 49.0 mg/kg/day, baseline 4.0) was 1.0 seizures per week and the “Seizure frequency: Tonic” value (Patient 5, 72 weeks, CBD 50.0 mg/kg/day, baseline 4.0) was 0.0 seizures per week. For the same compound, the “Seizure frequency: Tonic” value (Patient 5, 84 weeks, CBD 50.0 mg/kg/day, baseline 4.0) was 0.0 seizures per week, the “Seizure frequency: Tonic” value (Patient 5, 96 weeks, CBD 49.7 mg/kg/day, baseline 4.0) was 0.0 seizures per week and the “Seizure frequency: Tonic” value (Patient 5, 108 weeks, CBD 49.7 mg/kg/day, baseline 4.0) was 0.0 seizures per week. For the same compound, the “Seizure frequency: Tonic” value (Patient 5, 132 weeks, CBD 49.1 mg/kg/day, baseline 4.0) was 0.0 seizures per week, the “Seizure frequency: Tonic” value (Patient 5, 144 weeks, CBD 50.0 mg/kg/day, baseline 4.0) was 0.0 seizures per week and the “reduction in tonic seizures over the treatment period” value (Patient 5, treated for 144 weeks, vs baseline) was 100%. The “Seizure frequency: Focal without impairment” value (Patient 6, 4 weeks, CBD 25.0 mg/kg/day, baseline 20.0) was 8.0 seizures per week, the “Seizure frequency: Focal without impairment” value (Patient 6, 8 weeks, CBD 25.0 mg/kg/day, baseline 20.0) was 0.0 seizures per week and the “Seizure frequency: Focal without impairment” value (Patient 6, 16 weeks, CBD 25.0 mg/kg/day, baseline 20.0) was 4.0 seizures per week. For the same compound, the “Seizure frequency: Focal without impairment” value (Patient 6, 24 weeks, CBD 25.0 mg/kg/day, baseline 20.0) was 2.0 seizures per week, the “reduction in focal seizures without impairment over the treatment period” value (Patient 6, treated for 24 weeks, vs baseline) was 90% and the “Seizure frequency: Focal with impairment” value (Patient 7, 2 weeks, CBD 10.0 mg/kg/day) was 22.0 seizures per week. For the same compound, the “Seizure frequency: Focal without impairment” value (Patient 7, 2 weeks, CBD 10.0 mg/kg/day, baseline 233.0) was 182.0 seizures per week, the “Seizure frequency: Focal with impairment” value (Patient 7, 4 weeks, CBD 20.0 mg/kg/day) was 26.0 seizures per week and the “Seizure frequency: Focal without impairment” value (Patient 7, 4 weeks, CBD 20.0 mg/kg/day, baseline 233.0) was 62.0 seizures per week. For the same compound, the “Seizure frequency: Focal with impairment” value (Patient 7, 8 weeks, CBD 25.0 mg/kg/day) was 35.0 seizures per week, the “Seizure frequency: Focal without impairment” value (Patient 7, 8 weeks, CBD 25.0 mg/kg/day, baseline 233.0) was 125.0 seizures per week and the “Seizure frequency: Focal with impairment” value (Patient 7, 12 weeks, CBD 25.0 mg/kg/day) was 40.0 seizures per week. For the same compound, the “Seizure frequency: Focal without impairment” value (Patient 7, 12 weeks, CBD 25.0 mg/kg/day, baseline 233.0) was 112.0 seizures per week, the “Seizure frequency: Focal with impairment” value (Patient 7, 16 weeks, CBD 25.0 mg/kg/day) was 66.7 seizures per week and the “Seizure frequency: Focal without impairment” value (Patient 7, 16 weeks, CBD 25.0 mg/kg/day, baseline 233.0) was 93.3 seizures per week. For the same compound, the “Seizure frequency: Focal with impairment” value (Patient 7, 24 weeks, CBD 25.0 mg/kg/day) was 62.4 seizures per week, the “Seizure frequency: Focal without impairment” value (Patient 7, 24 weeks, CBD 25.0 mg/kg/day, baseline 233.0) was 96.8 seizures per week and the “Seizure frequency: Focal with impairment” value (Patient 7, 36 weeks, CBD 20.0 mg/kg/day) was 94.8 seizures per week. The “Seizure frequency: Focal without impairment” value (Patient 7, 36 weeks, CBD 20.0 mg/kg/day, baseline 233.0) was 39.7 seizures per week, the “Seizure frequency: Focal with impairment” value (Patient 7, 48 weeks, CBD 20.0 mg/kg/day) was 62.5 seizures per week and the “Seizure frequency: Focal without impairment” value (Patient 7, 48 weeks, CBD 20.0 mg/kg/day, baseline 233.0) was 92.9 seizures per week. The “Seizure frequency: Focal with impairment” value (Patient 7, 60 weeks, CBD 20.0 mg/kg/day) was 72.8 seizures per week, the “Seizure frequency: Focal without impairment” value (Patient 7, 60 weeks, CBD 20.0 mg/kg/day, baseline 233.0) was 141.2 seizures per week and the “Seizure frequency: Focal with impairment” value (Patient 7, 72 weeks, CBD 20.0 mg/kg/day) was 179.7 seizures per week. The “Seizure frequency: Focal without impairment” value (Patient 7, 72 weeks, CBD 20.0 mg/kg/day, baseline 233.0) was 139.4 seizures per week, the “reduction in focal seizures without impairment over the treatment period” value (Patient 7, treated for 72 weeks, vs baseline) was 40.2% and the “Seizure frequency: Tonic” value (Patient 8, 4 weeks, CBD 20.0 mg/kg/day, baseline 280.0) was 6.0 seizures per week. For the same compound, the “Seizure frequency: Tonic” value (Patient 8, 8 weeks, CBD 25.0 mg/kg/day, baseline 280.0) was 5.0 seizures per week, the “Seizure frequency: Atonic” value (Patient 8, 12 weeks, CBD 25.0 mg/kg/day) was 12.0 seizures per week and the “Seizure frequency: Tonic” value (Patient 8, 12 weeks, CBD 25.0 mg/kg/day, baseline 280.0) was 60.0 seizures per week. The “Seizure frequency: Atonic” value (Patient 8, 16 weeks, CBD 25.0 mg/kg/day) was 24.0 seizures per week, the “Seizure frequency: Tonic” value (Patient 8, 16 weeks, CBD 25.0 mg/kg/day, baseline 280.0) was 56.0 seizures per week and the “Seizure frequency: Atonic” value (Patient 8, 24 weeks, CBD 25.0 mg/kg/day) was 4.0 seizures per week. For the same compound, the “Seizure frequency: Tonic” value (Patient 8, 24 weeks, CBD 25.0 mg/kg/day, baseline 280.0) was 32.0 seizures per week, the “Seizure frequency: Atonic” value (Patient 8, 36 weeks, CBD 10.0 mg/kg/day) was 4.0 seizures per week and the “Seizure frequency: Tonic” value (Patient 8, 36 weeks, CBD 10.0 mg/kg/day, baseline 280.0) was 896.0 seizures per week. The “reduction in atonic seizures over the treatment period” value (Patient 8, treated for 36 weeks, vs baseline) was 95.0%, the “reductions in seizures over period of treatment, overall” value (all patients, atonic, tonic and focal without impairment seizures) was 40.2-100.0% and the “seizure freedom from tonic seizures” value (one patient (patient 5), after 12 months of CBD treatment) was “seizure free of tonic seizures; also recorded: completely seizure free”. For the same compound, the “effect on frequency of atonic, tonic and focal without impairment seizures (in words)” value (patients with Cortical Dysplasia and Cortical Brain Malformation) was “effective in reducing the frequency; also recorded: significantly reduce the number of seizures; also recorded: significant reduction”.
